These results are taken from ChEMBL document CHEMBL4482309, “Discovery of the first selective c5a2 receptor (c5l2/c5ar2) ligands” (2017).

The target of assay [1] is C5a anaphylatoxin chemotactic receptor 2 (Homo sapiens) (UniProt Q9P296). In words: Agonist activity at C5a2 receptor in HMDM assessed as inhibition of LPS-induced IL-6 release at 100 uM by ELISA.
The target in assay [2] is T1, Mitogen-activated protein kinase; ERK1/ERK2 (Homo sapiens) (UniProt P27361+P28482). The experiment in a line: Induction of ERK1/2 phosphorylation in HMDM at 100 uM incubated for 30 mins. The format is protein assay.
T1 sequence (P27361 whole entry, looked up): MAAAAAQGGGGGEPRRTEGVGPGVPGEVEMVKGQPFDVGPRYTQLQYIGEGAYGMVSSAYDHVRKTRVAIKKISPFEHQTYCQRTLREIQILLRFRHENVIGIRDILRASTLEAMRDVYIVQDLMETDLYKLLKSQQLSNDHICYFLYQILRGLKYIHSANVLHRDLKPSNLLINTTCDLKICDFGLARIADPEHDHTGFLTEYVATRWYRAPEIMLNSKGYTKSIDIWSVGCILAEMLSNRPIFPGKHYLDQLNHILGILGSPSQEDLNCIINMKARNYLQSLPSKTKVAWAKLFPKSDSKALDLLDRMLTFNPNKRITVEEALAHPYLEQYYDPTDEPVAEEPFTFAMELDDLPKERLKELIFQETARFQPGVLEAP
T1 sequence (P28482 whole entry, looked up): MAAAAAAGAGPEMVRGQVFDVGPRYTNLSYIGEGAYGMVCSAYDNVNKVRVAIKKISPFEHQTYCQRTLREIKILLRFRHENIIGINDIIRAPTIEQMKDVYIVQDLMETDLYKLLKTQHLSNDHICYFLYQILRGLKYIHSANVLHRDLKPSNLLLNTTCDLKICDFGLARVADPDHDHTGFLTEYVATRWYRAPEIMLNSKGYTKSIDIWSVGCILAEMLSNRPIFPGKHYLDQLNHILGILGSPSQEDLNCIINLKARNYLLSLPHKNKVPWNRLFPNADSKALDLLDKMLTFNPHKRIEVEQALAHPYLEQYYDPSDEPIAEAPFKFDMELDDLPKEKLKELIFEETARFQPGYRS
Assay [3] has as its target C5a anaphylatoxin chemotactic receptor 2 (Homo sapiens) (UniProt Q9P296). The experiment in a line: Partial agonist activity at C5a2 receptor (unknown origin) expressed in HEK293 cells assessed as induction of beta-arrestin-2 recruitment incubated for 1 hr by BRET assay. Format: cell-based.
Assay [4] deals with C5a anaphylatoxin chemotactic receptor 1/2 (Homo sapiens) (UniProt P21730+Q9P296). The experiment in a line: Induction of C5a1-C5a2 heteromer formation (unknown origin) expressed in HEK293 cells at 100 uM by BRET assay. Format: cell-based.
The target in assay [5] is C5a anaphylatoxin chemotactic receptor 2 (Homo sapiens) (UniProt Q9P296). In words: Agonist activity at C5a2 receptor in HMDM assessed as inhibition of LPS-induced TNFalpha release at 0.1 to 100 uM by ELISA. (ELISA stands for enzyme-linked immunosorbent assay.)
Assay [6] has the same target. In words: Displacement of [125I]-C5a from C5a2 receptor (unknown origin) expressed in Flp-In CHO cell membranes at 100 uM incubated for 1 hr by microbeta scintillation counting assay.
Assay [7] has the same target. The experiment in a line: Displacement of [125I]-C5a from C5a2 receptor (unknown origin) expressed in Flp-In CHO cell membranes incubated for 1 hr by microbeta scintillation counting assay.
For assay [8], the target named is T2, C5a anaphylatoxin chemotactic receptor 1 (Homo sapiens) (UniProt P21730).
T2 sequence (whole entry): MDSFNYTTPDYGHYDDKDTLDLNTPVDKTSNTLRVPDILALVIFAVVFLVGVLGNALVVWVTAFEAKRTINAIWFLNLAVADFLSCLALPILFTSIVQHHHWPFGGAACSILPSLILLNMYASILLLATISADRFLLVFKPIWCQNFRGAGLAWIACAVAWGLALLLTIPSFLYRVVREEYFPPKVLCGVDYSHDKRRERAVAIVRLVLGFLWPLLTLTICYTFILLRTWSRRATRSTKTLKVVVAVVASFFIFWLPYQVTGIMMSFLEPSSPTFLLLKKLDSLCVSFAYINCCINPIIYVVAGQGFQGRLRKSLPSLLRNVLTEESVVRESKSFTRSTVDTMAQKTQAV
The experiment in a line: Partial agonist activity at human C5a1 receptor assessed as induction of beta-arrestin-2 recruitment by DiscoverX Path Hunter kit based assay. In general terms: Arrestin recruitment assays detect the binding of arrestin to an activated receptor.

Assay [9] has as its target C5a anaphylatoxin chemotactic receptor 2 (Homo sapiens) (UniProt Q9P296). The experiment in a line: Partial agonist activity at C5a2 receptor (unknown origin) expressed in HEK293 cells assessed as induction of beta-arrestin-2 recruitment incubated for 1 hr by BRET assay relative to C5a. Format: cell-based.
For assay [10], the target named is T2, C5a anaphylatoxin chemotactic receptor 1 (Homo sapiens). In words: Agonist activity at C5a1 receptor (unknown origin) expressed in HEK293 cells assessed as induction of beta-arrestin-2 recruitment at 100 uM incubated for 1 hr by BRET assay. Format: cell-based.
For assay [11], the target named is T1, Mitogen-activated protein kinase; ERK1/ERK2 (Homo sapiens). In words: Agonist activity at C5a2 receptor in HMDM assessed as inhibition of C5a-induced induction of ERK1/2 phosphorylation in HMDM at 100 uM pre-incubated for 30 mins before C5a addition and measured after 10 mins.
Assay [12] deals with C5a anaphylatoxin chemotactic receptor 2 (Homo sapiens) (UniProt Q9P296). The experiment in a line: Agonist activity at C5a2 receptor in LPS-induced IHMDM assessed as effect on […] release at 0.1 to 100 uM by ELISA.
The target of assay [13] is T2, C5a anaphylatoxin chemotactic receptor 1 (Homo sapiens). In words: Displacement of [125I]-C5a from C5a1 receptor (unknown origin) expressed in Flp-In CHO cell membranes incubated for 1 hr by microbeta scintillation counting assay. Background: Loss of bound radioactivity is the signal in a displacement assay; it reports binding, not function.
For assay [14], the target named is C5a anaphylatoxin chemotactic receptor 2 (Homo sapiens) (UniProt Q9P296). In words: Agonist activity at C5a2 receptor in HMDM assessed as inhibition of LPS-induced TNFalpha release at 100 uM in presence of C5a1 antagonist PMX53 by ELISA.
The target is the same in assay [15]. The experiment in a line: Partial agonist activity at human C5a2 receptor assessed as induction of beta-arrestin-2 recruitment by DiscoverX Path Hunter kit based assay.
Assay [16] has the same target. In words: Agonist activity at C5a2 receptor in HMDM assessed as inhibition of LPS-induced IL-6 release at 10 to 100 uM by ELISA.
In assay [17] the test system is Mus musculus. The experiment in a line: Inhibition of C5a-induced neutrophil mobilization in iv dosed wild type mouse. Format: functional, organism-based.
For assay [18], the system named is Mus musculus. In words: Inhibition of C5a-induced neutrophil mobilization in iv dosed C5aR2 (-/-) mouse. The format is functional, organism-based.

Activity calls are given as the source filed them. The rule behind the calls is not given here.

C5a anaphylatoxin chemotactic receptor 2 (Homo sapiens), sequence (Q9P296 whole entry): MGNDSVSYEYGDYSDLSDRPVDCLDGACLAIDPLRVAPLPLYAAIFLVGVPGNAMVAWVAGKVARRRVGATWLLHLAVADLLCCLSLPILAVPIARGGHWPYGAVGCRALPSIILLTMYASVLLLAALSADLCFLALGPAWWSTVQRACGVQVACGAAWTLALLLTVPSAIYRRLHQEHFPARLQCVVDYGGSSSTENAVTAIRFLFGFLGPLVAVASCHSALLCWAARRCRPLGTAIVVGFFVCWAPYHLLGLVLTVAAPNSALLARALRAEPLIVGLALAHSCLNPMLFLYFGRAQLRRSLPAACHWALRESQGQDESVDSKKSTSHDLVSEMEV

Consider Ac-LIRLWR-OH, for which the inhibition result in assay [1], in [6] and in assay [11] was “Active” in each case. Besides, the outcome in assay [2], in assay [4], in [8], in [10] and in [12] was inactive. Moreover, the values for the Activity result in assay [3] and in assay [9] were “Dose-dependent effect” and 52.9%, respectively. Further, the inhibition entry in assay [5] and in assay [14] was “inactive” throughout. In addition, the inhibition result in assay [7] and in assay [13] was “Dose-dependent effect” throughout. The result in [15] was Active.
As for Ac-RHYPYWR-OH, the inhibition entry (in assay [16]; in [6]; in the assay with Mus musculus [17]; in assay [11]) was “Active” throughout. The outcome in assay [2], in assay [4], in assay [8], in [10] and in assay [12] was inactive. The Activity entry in [3] is “Dose-dependent effect”; in assay [9], 28.8%. The inhibition entry (in assay [5]; with Mus musculus [18]; in assay [14]) was “inactive” throughout. Further, the inhibition entry in assay [7] and in [13] was “Dose-dependent effect” in each case. The result in [15] was Active.
